Key:
Test in all cases: ITC
lpWalK (370-624) = molecular target: T1, lpWalK (370-624); type: binding, Lactiplantibacillus plantarum; conditions: 20 mM Tris-HCl pH 8.0, 5 mM MgCl2, 25 °C, fixed 1:1 model
T1 construct: gene walK; catalytic region DHp + CA domains, residues 370-624, N-terminal His tag, pET-His, E. coli BL21(DE3); DHp homodimer

smVicK (196-450) = molecular target: T2, smVicK (196-450) (Streptococcus mutans, UniProt Q8DT64); type: binding
T2 construct: gene covS; DHp + CA domains, residues 196-450, pET-His vector, expressed in E. coli and purified as lpWalK

smVicK CA (271-450) = molecular target: T3, smVicK CA (271-450) (Streptococcus mutans, UniProt Q8DT64); type: binding
T3 construct: gene covS
T3 sequence (Q8DT64 entry or part of it): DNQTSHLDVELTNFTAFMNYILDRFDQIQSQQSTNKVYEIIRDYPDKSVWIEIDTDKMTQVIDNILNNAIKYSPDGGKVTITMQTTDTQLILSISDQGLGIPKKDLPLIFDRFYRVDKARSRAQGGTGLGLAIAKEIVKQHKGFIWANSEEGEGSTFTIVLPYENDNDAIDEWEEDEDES

T2 sequence (Q8DT64 entry or part of it): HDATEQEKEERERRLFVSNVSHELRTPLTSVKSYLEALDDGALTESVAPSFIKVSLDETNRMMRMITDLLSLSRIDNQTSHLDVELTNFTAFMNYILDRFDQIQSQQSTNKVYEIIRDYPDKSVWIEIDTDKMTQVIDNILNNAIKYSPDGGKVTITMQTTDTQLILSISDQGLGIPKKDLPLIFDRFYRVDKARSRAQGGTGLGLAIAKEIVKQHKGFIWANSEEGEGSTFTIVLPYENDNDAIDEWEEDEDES

## Nc1ncnc2c1ncn2[C@@H]1O[C@H](COP(=O)(O)O)[C@@H](O)[C@H]1O [AMP]
lpWalK (370-624)
  Kd: 1280 ± 95.5 µM

## Nc1ncnc2c1ncn2[C@@H]1O[C@H](COP(=O)(O)OP(=O)(O)O)[C@@H](O)[C@H]1O [ADP]
lpWalK (370-624)
  Kd: 1200 ± 17 µM
smVicK (196-450)
  Kd: 701 ± 165 µM
smVicK CA (271-450)
  Kd: 474 ± 97.5 µM

## Nc1ncnc2c1ncn2[C@@H]1O[C@H](COP(=O)(O)OP(=O)(O)NP(=O)(O)O)[C@@H](O)[C@H]1O [AMPPNP]
lpWalK (370-624); gamma-phosphate not defined in the crystal
  Kd: 450 ± 6.36 µM
smVicK (196-450)
  Kd: 538 ± 32 µM
smVicK CA (271-450)
  Kd: 292 ± 15.2 µM

From paper PMC5633905, “Conformational dynamics of the essential sensor histidine kinase WalK” (Acta Crystallographica. Section D, Structural Biology, 2017)
